The results in this text go back to US20240269157A1, “COMPOSITIONS AND METHODS FOR OVERCOMING MICROENVIRONMENT-MEDIATED RESISTANCE VIA E-SELECTIN TARGETING” (GLYCOMIMETICS, INC., priority 2021, published 2024).

In test [1] the test system is KG1 cells. In words: Flow cytometry of E-selectin-PE and HECA-452-FITC reactivity with KG1 cells. The class given is cell-based, human. Conditions: 100 nM 5-AZA. How it is done: The increased adhesion of KG1 cells to E-selectin following treatment with 5-AZA was further examined by flow cytometry. Cells were cultured for 96 hours in the presence or absence of 100 nM 5-AZA. The binding of E-selectin-PE (E-selectin-Fc chimera conjugated with R-phycoerythrin) to the cells was determined by flow cytometry. In addition, the reactivity of the cells with HECA-452 monoclonal antibody, which specifically reacts with sialyl Lewis A/X carbohydrate structures and is a surrogate marker of E-selectin ligand, was determined by flow cytometry.
Specifically, KG1 cells were centrifuged at 250×g for 10 minutes, washed with HBSS containing 0.1% bovine serum albumin (HBSS/BSA), and resuspended in HBSS/BSA to approximately 3×10^6 cells per mL. The cells were treated with Fc receptor blocker (Miltenyi Biotech) and 100 μL aliquots (3×10^5 cells) were added to 12×75 mm Falcon polypropylene tubes. Cells were treated with either 5 μL E-selectin-Fc-PE reagent or 20 μL HECA-452-FITC antibody, placed at 4° C. for 45 minutes, washed with 2 mL then again with 1 mL HBSS/BSA. Final cell pellets were resuspended in 500 μl HBSS/BSA and analyzed on an Attune N×T flow cytometer. E-selectin was conjugated with R-phycoerythrin using the PE/R-phycoerythrin conjugation kit—Lightning-Link (Abcam ab102918).
A general note: In flow cytometry, cells or beads pass a laser one at a time.

In test [2] the test system is FUT7 promoter. In words: Targeted Next-Gen bisulfite sequencing of the FUT7 promoter region in KG1 cells. As to conditions: dose and time dependent. The class given is cell-based, human. How it is done:
To test whether the increased expression of FUT7 mRNA in KG1 cells treated with 5-AZA could be due to hypomethylation of the FUT7 promoter, targeted Next-Gen bisulfite sequencing of the FUT7 promoter region was performed. The methylation status of 101 CpG sites surrounding the transcription start site was determined. […] Cells were collected after 96 hours of treatment and cell pellets were prepared. Extracted DNA samples (500 ng) were bisulfite modified using the EZ-96 DNA Methylation-Direct Kit™ (ZymoResearch; Irvine, CA; Catalog No. D5023) per the manufacturer's protocol with minor modification. The bisulfite modified DNA samples were eluted using M-elution buffer in 46 μL. Following DNA extraction and bisulfite modification, 26 regions surrounding the transcription start site were evaluated by PCR/NGS to assess the methylation status of 101 CpG sites. All bisulfite modified DNA samples were amplified using separate multiplex or simplex PCRs. PCRs included 0.5 units of HotStarTaq (Qiagen; Hilden, Germany; Catalog No. 203205), 0.2 μM primers, and 3 μL of bisulfite-treated DNA in a 20 μL reaction.

Test [3] concerns KG1 cells. In words: Global DNA methylation (5-mC) ELISA in KG1 cells. Conditions: 100 nM 5-AZA, 96 hours (untreated 0.33%). (In general: An ELISA detects its analyte on a solid surface through an enzyme-linked reagent.)
Procedure: Prior to assessing the effect of 5-AZA on specific gene expression, its effect on global DNA methylation was assessed by specifically measuring levels of 5-methylcytosine (5-mC) in a colorimetric ELISA-like reaction. DNA was isolated from cell pellets using a DNA Isolation Kit for Cells and Tissues (Roche Catalog No. 11 814 770 001). DNA was quantified using a DNA Quantification Assay Kit (BioVision Catalog No. K539-200). Global DNA methylation was measured using the MethylFlash™ Global DNA Methylation (5-mC) ELISA Easy Kit (EpiGentek Catalog No. P-1030).
DNA was isolated and purified from cell pellets and evaluated for 5-mC levels.
For test [4], the system named is HUVEC co-cultured AML. As to the kind of experiment: Cell cycle regulating protein expression in HUVEC co-cultured AML. Type of test: cell-based, human.
For test [5], the system named is PDX AML (Flt3-ITD and WT1 mutations, sorafenib-resistant). In words: PDX model (Flt3-ITD and WT1 mutations, sorafenib-resistant), CyTOF after 2 days. Type of test: in vivo, mice. How it is done:
To delineate the mechanism of E-selectin at the onset of drug-mediated changes in AML signaling signatures, another PDX model was employed (Flt3-ITD and WT1 mutations, sorafenib-resistant).
PDX mice with advanced AML (more than 20% human AML cells circulation in peripheral blood) were administered vehicle control, venetoclax (25 mg/kg)/HMA (5.5 mg/kg), Compound A (200 mg/kg), or a combination therapy for 2 days. After 2 days of bolus drug administration, mice were sacrificed and subjected to CyTOF analysis (FIGS. 9A-C). Single cell proteomics analysis by CyTOF determined that combinatorial treatment of Compound A with venetoclax/HMA diminished levels of Ki67, IDU, and pRb compared to vehicle control or venetoclax/HMA alone, resulting in decreased proliferation of AML blasts.

For test [6], the system named is patient-derived primary AML xenograft (JAK2 and c-Kit). As to the kind of experiment: PDX model (mutations in JAK2 and c-Kit), LSC retention and CyTOF of BM cells. The class given is in vivo, mice. The source says: Intra-vital imaging was employed to investigate the effects of Compound B on AML cell motility in the bone marrow of triple reporter mice (Blood: dextran-TRITC; Host T-cells: DsRed; Host myeloid CD11 cells: EYFP) injected with AML cells carrying a turquoise fluorescent protein reporter gene. […] Individual cells were dislodged from the niche and traveled long-distance (FIG. 17C). The combined inhibition of E-selectin and CXCR4 depleted bone marrow vascular niche areas of leukemia cells.
In order to better understand how the augmented AML mobilization improves the efficacy of AML therapy, BM cells from PDX mice treated for 2 weeks with Compound A, Compound B, venetoclax/HMA (Ven/HMA), and their combinations were analyzed by single-cell proteomics (CyTOF). […] However, pharmacological antagonists of E-selectin (Compound A) or E-selectin/CXCR4 (Compound B) protected endothelial cells from Ven/HMA-induced detrimental insults through upregulation of survival signaling cascades, including pAKT, pERK, pMAPK and […] eNOS expression in endothelial cells compared to Ven/HMA treatment alone.

[7] abbreviates: in combination with Ven/HMA, 2 weeks, CyTOF of BM cells.

As to `Nc1ncn([C@@H]2O[C@H](CO)[C@@H](O)[C@H]2O)c(=O)n1` [5-azacitidine], in test [1] (96 hours), the “increase in MFI, HECA-452” value is reported as 26%; the “increase in median fluorescence intensity, E-selectin-PE” value came to 38%; the “increase in the percentage of cells reactive with E-selectin-PE” value came to 38%; the “increase in the percentage of cells reactive with HECA-452” value is listed as 27%. The “percentage of cells reactive with HECA-452” value in test [1] (96 hours (untreated 37.8%)) is 47.9%. Also, the “percentage of cells reactive with E-selectin-PE” value in test [1] (96 hours (untreated 38.4%)) was determined as 52.9%. The “MFI, HECA-452” value in test [1] (96 hours (untreated 621)) worked out at 783. In test [1] (96 hours (untreated 940)), the “median fluorescence intensity (MFI), E-selectin-PE” value was found to be 1299. Moreover, the “methylation of CpG sites of the FUT7 promoter region” value in test [2] is listed as “demethylation”. Moreover, in test [3], the “level of 5-mC” value stood at 0.12%.

With `CCC1CC(C(=O)NCCNC(=O)CCOCCOCCOCCOCCOCCOCCOCCOCCOCCOCCOCCOC)C[C@@H](O[C@@H]2OC(CO)[C@H](O)C(O[C@@H](CC3CCCCC3)C(=O)O)C2NC(C)=O)[C@@H]1OC1O[C@@H](C)[C@H](O)C(O)[C@@H]1O` (some centres unmarked) [Compound A], the “expression of cell cycle regulating proteins including CDK4, CDK6, CyclinD1, and CyclinD2” value in test [4] is given as “increased”. For the same molecule, in test [5] (Compound A added to venetoclax/HMA), the “oncogenic signaling pathways MAPK, p-S6, and STAT3” value is on record as “inhibited”. Besides, in test [5] (mouse, in vivo), the “activation of PI3K and AKT in AML blasts and BM CD31+EC cells” value was “reduced”; the “eNOS phosphorylation in EC” value is “decreased”. In addition, in test [6] (setting [7]), the “levels of E-selectin ligand, mTOR, pFAK, pRb, cMyc” value is given as “diminished”; the “p21 and cleaved caspase3” value is on record as “increasing”. Moreover, in test [6] (upregulated pAKT, pERK, pMAPK, decreased eNOS vs Ven/HMA alone), the “protection of endothelial cells from Ven/HMA-induced detrimental insults” value is “protected”.
